From patent US20100068302A1, “METHODS AND COMPOSITIONS FOR THE TREATMENT OF CANCER” (TRASLATIONAL CANCER DRUGS PHARMA, S.L., priority 2008, published 2010)
Where “and” joins values, the source holds several entries; their conditions need not be identical. Equal values may be shown once. Read-outs that look alike come from different tables or passages of the source.

Key:
[1] = tested on: primary cultures of resected NSCLC tumours; assay: Primary cultures of NSCLC tumours treated 10 days, Cristal Violet quantification; assay type: cell-based, human; details: for RESISTANT (% of samples) / RESISTANT (number of tumour samples) / SENSITIVES (% of samples) / SENSITIVES (number of tumour samples): primary NSCLC tumour cultures, 0-20 μM, 10 days
Description: Specimens of lung cancer tissue from 84 randomly selected patients who underwent surgical resection of NSCLC between 2001 and 2004 and that were followed up by The Medical Oncology division at La Paz Hospital in Madrid were used for this analysis. No adjuvant therapy was administrated to these patients. The study was approved by the institutional review board of the hospitals, and written informed consent was obtained from all patients.
Resected tissues from NSCLC patients were dissociated (Cell dissociation sieve-tissued grinder Kit CD1, SIGMA), and the obtained cells were seeded in 24 well plates (BD, Falcon, Bioscience, San Jose, Calif., USA). […] The final persistent population in each well was quantified by the method of Cristal Violet as previously described (Rodríguez-González, A. et al., Oncogene, 22:8803-8812). […]

[2] = tested on: Human primary bronchial epithelial cells, NHBE (BEC); assay: Cell proliferation assay (MTT), Primary BEC; assay type: cell-based
Method: (§1) All cell lines used in this study were maintained under standard conditions of temperature (37° C.), humidity (95%), and carbon dioxide (5%). Human primary bronchial epithelial cells, NHBE (BEC) (Cambrex, CC-2541) were grown in BEGM (Bronchial Epithelial cell growth media) BulletKit (Cambrex, CC-3170). Human primary mammary epithelial cells, HMEC (Clonetics, CC-2551) were grown in MEBM medium supplemented with a bullet kit (Clonetics, CC-3150). Epithelial non-small lung cancer cells H460 and H1299, and small cell lung cancer cell lines H510 and H82 were maintained in RPMI supplemented with 10% Fetal Bovine Serum (FBS) (Life Technologies, Grand Island, N.Y.).
(§2) Cells were seeded on 96-well plates (B D, Falcon, Bioscience, San Jose, Calif., USA) at a density of 6000 cells/well, and incubated for 24 h under standard conditions. […] Absorbance is read at 595 nm in a VersaMax Microplate Reader (Molecular Devices, Sunnyvale, Calif., USA). For sensitization with acid ceramidase inhibitor, cells were pre-treated 4 hours with the correspondent IC50 for NOE before treatment with ChoK inhibitors. NOE (N-Oleoyl ethanolamine) was obtained from Calbiochem (La Jolla, Calif., USA).

[3] = tested on: Human primary mammary epithelial cells, HMEC; assay: Cell proliferation assay (MTT), Primary HMEC; assay type: cell-based
Method: as §1, §2

[4] = tested on: H1299 non-small lung cancer cells; assay: Cell proliferation assay (MTT), H1299; assay type: cell-based; details: Homo sapiens
Method: as §1, §2

[5] = tested on: H460 non-small lung cancer cells; assay: Cell proliferation assay (MTT), H460; assay type: cell-based, human
[6] = tested on: H510 small cell lung cancer cells; assay: Cell proliferation assay (MTT), H510; assay type: cell-based; details: Homo sapiens
Method: as §1, §2

[7] = tested on: H82 small cell lung cancer cells; assay: Cell proliferation assay (MTT), H82; assay type: cell-based; details: Homo sapiens
Method: as §1, §2

H460stock cells = assay: Cell proliferation assay (MTT), H460stock control line; assay type: cell-based, human
Method: (§3) Cell lines resistant to MN58b and RSM-932A (identified as MN58R and RSM-932A-R, respectively) were generated by prolonged continuous exposure to increasing concentrations of each drug. A parallel control (H460 stock) of the cell line in the absence of the compounds was kept in culture for the same time.
as §2, with “conditions. Then, cells were treated with different concentrations of the ChoK inhibitors (quadruplicates of each concentration) and maintained for 72 hours.” for “conditions.”
(§4) To further study the mechanism underlying resistance to ChoK inhibition, as well as the implication of acid ceramidase in this effect, we used the human NSCLC-derived H460 cell line for a set of in vitro experiments. […]

H460 MN58R cells = assay: Cell proliferation assay (MTT), H460 line resistant to MN58b; assay type: cell-based, human
Method: as §3
as §2, with “conditions. Then, cells were treated with different concentrations of the ChoK inhibitors (quadruplicates of each concentration) and maintained for 72 hours.” for “conditions.”
as §4

H460 RSM-932AR cells = assay: Cell proliferation assay (MTT), H460 line resistant to RSM-932A; assay type: cell-based, human
Method: as §3
as §2, with “conditions. Then, cells were treated with different concentrations of the ChoK inhibitors (quadruplicates of each concentration) and maintained for 72 hours.” for “conditions.”
as §4

H460 cells = assay: Combination index assay (Chou Talalay) cisplatin plus ChoK inhibitors; assay type: cell-based, human; details: cisplatin 3 h followed by 40 h of ChoK inhibitor, CI<1 synergistic, CIs<0.5 strong synergistic
Method: All experiments were performed in quadruplicate.

[8] = tested on: DLD-1 colon cancer derived cells; assay: MTT cytotoxicity, ChoKI and TRAIL, DLD-1; details: DLD-1, drug alone
Description: (§5) To that end, five colon cancer derived cell lines were used: DLD-1, HT-29, HCT-116, SW620 and SW480.

[9] = tested on: HT-29 colon cancer derived cells; assay: MTT cytotoxicity, ChoKI and TRAIL, HT-29; details: HT-29, drug alone
Description: as §5

[10] = tested on: SW620 colon cancer derived cells; assay: MTT cytotoxicity, ChoKI and TRAIL, SW620; details: SW620 (FIG. 7B)
Description: as §5

[11] = tested on: DLD-1, HT-29, HCT-116, SW620 and SW480; assay: MTT sensitivity in five colon cancer derived cell lines; assay type: cell-based; details: five colon cancer derived cell lines (FIG. 7)
Description: as §5

[12] = of 84 patients, nearly 100% of cells alive at 20 μM at day 10
[13] = Homo sapiens, NCI-H460, 72 h, H460, single agent (Table 7), read-out: IC50 72 h
[14] = Homo sapiens, NCI-H460, read-out: IC50

With `Nc1ccn([C@@H]2O[C@H](CO)[C@@H](O)C2(F)F)c(=O)n1` [Gemcitabine] the “RESISTANT (% of samples)” value [1] was 65.4%, the “RESISTANT (number of tumour samples)” value [1] was 34 and the “SENSITIVES (% of samples)” value [1] was 34.6%. The “SENSITIVES (number of tumour samples)” value [1] was 18.
With `CN(C)c1cc[n+](Cc2ccc(CCCCc3ccc(C[n+]4ccc(N(C)C)cc4)cc3)cc2)cc1` [MN58b, 1,4-(4-4′-Bis-((4-(dimethylamine)pyridinium-1-yl)methyl)diphenyl)butane dibromide] the “samples highly sensitive (%)” value ([1]; among the 45 sensitive tumours) was 33.3%, the “samples partially sensitive (%)” value ([1]; among the 45 sensitive tumours) was 66.7% and the “samples partially sensitive (number)” value ([1]; among the 45 sensitive tumours, around 50% of cells alive at end of treatment) was 30. The “samples highly sensitive (number)” value ([1]; among the 45 sensitive tumours, viability abolished at low concentrations, day 10) was 15, the “tumours sensitive to the antiproliferative effect (%)” value ([1]; of 84 patients, day 10) was 53.6% and the “tumours sensitive to the antiproliferative effect (number)” value ([1]; of 84 patients, day 10) was 45. The “samples fully resistant (%)” value [1, 12] was 46,4%, the “samples fully resistant (number)” value [1, 12] was 39 and the “RESISTANT (% of samples)” value [1] was 44.4%. The “RESISTANT (number of tumour samples)” value [1] was 28, the “SENSITIVES (% of samples)” value [1] was 55.5% and 55% and the “SENSITIVES (number of tumour samples)” value [1] was 35. For the same compound, the IC50 ([2]; 48 h, read-out: IC50 48 h) was 40.5 ± 6.2 µM, the IC50 ([2]; 72 h, read-out: IC50 72 h) was 18.3 ± 4.8 µM and the IC50 ([2]; 144 h, read-out: IC50 144 h) was 4.2 ± 0.8 µM. The IC50 ([3]; 48 h, read-out: IC50 48 h) was 44.7 ± 4.95 µM, the IC50 ([3]; 72 h, read-out: IC50 72 h) was 20.9 ± 2.7 µM and the IC50 ([3]; 144 h, read-out: IC50 144 h) was 3.4 ± 0.13 µM. For the same compound, the IC50 ([4]; NCI-H1299, 48 h, read-out: IC50 48 h) was 10.3 ± 2.5 µM, the IC50 ([4]; NCI-H1299, 72 h, read-out: IC50 72 h) was 2.7 ± 0.7 µM and the IC50 ([4]; NCI-H1299, 144 h, read-out: IC50 144 h) was 0.9 ± 0.1 µM. For the same compound, the IC50 ([5]; Homo sapiens, NCI-H460, 48 h, H460, 48 h, read-out: IC50 48 h) was 7.03 ± 2.03 µM, the IC50 ([5]; Homo sapiens, NCI-H460, 72 h, H460, 72 h (Table 6), read-out: IC50 72 h) was 2.6 ± 0.8 µM and the IC50 [5, 13] was 0.28 µM. The IC50 ([5]; Homo sapiens, NCI-H460, 144 h, H460, 144 h, read-out: IC50 144 h) was 1.1 ± 0.1 µM, the IC50 ([5]; Homo sapiens, NCI-H460, H460 (Table 8), read-out: IC50) was 0.28 µM and the IC50 ([6]; NCI-H510, 48 h, read-out: IC50 48 h) was 1.1 ± 0.1 µM. The IC50 ([6]; NCI-H510, 72 h, read-out: IC50 72 h) was 0.4 ± 0.05 µM, the IC50 ([6]; NCI-H510, 144 h, read-out: IC50 144 h) was 0.1 ± 0.03 µM and the IC50 ([7]; H82, 48 h, read-out: IC50 48 h) was 1.9 ± 0.2 µM. The IC50 ([7]; H82, 72 h, read-out: IC50 72 h) was 0.8 ± 0.04 µM, the IC50 ([7]; H82, 144 h, read-out: IC50 144 h) was 0.27 ± 0.01 µM and the IC50 (H460stock cells; Homo sapiens, read-out: IC50) was 0.39 µM. For the same compound, the IC50 (H460 MN58R cells; [14]) was 19.2 µM, the IC50 (H460 RSM-932AR cells; [14]) was 28.8 µM and the “Combination index (CI) with cisplatin” value (H460 cells) was 0.1.
Work on `CCCCCCCC/C=C\CCCCCCCC(=O)NCCO` [NOE, N-oleoylethanolamine, reference compound] yielded an IC50 [5, 13] of 32.5 µM.
With `CC(=O)O[C@H]1C(=O)[C@@]2(C)[C@H]([C@H](OC(=O)c3ccccc3)[C@]3(O)C[C@H](OC(=O)[C@H](O)[C@@H](NC(=O)c4ccccc4)c4ccccc4)C(C)=C1C3(C)C)[C@]1(OC(C)=O)CO[C@@H]1C[C@@H]2O` [Taxol] the “RESISTANT (% of samples)” value [1] was 56.5%, the “RESISTANT (number of tumour samples)” value [1] was 35 and the “SENSITIVES (% of samples)” value [1] was 43.5%. For the same compound, the “SENSITIVES (number of tumour samples)” value [1] was 27.
With `CCC1=C[C@@H]2CN(C1)Cc1c([nH]c3ccccc13)[C@@](C(=O)OC)(c1cc3c(cc1OC)N(C)[C@H]1[C@@](O)(C(=O)OC)[C@H](OC(C)=O)[C@]4(CC)C=CCN5CC[C@]31[C@@H]54)C2` [Vinolrelbine, vinorelbine] the “RESISTANT (% of samples)” value [1] was 61.5%, the “RESISTANT (number of tumour samples)” value [1] was 24 and the “SENSITIVES (% of samples)” value [1] was 38.5%. For the same compound, the “SENSITIVES (number of tumour samples)” value [1] was 15.
`[NH2][Pt]([NH2])([Cl])[Cl]` [cDDP, cisplatin, reference compound] was tested, and the “RESISTANT (% of samples)” value [1] was 50%, the “RESISTANT (number of tumour samples)” value [1] was 31 and the “SENSITIVES (% of samples)” value [1] was 50%. For the same compound, the “SENSITIVES (number of tumour samples)” value [1] was 31, the “IC50” value ([5]; H460) was 5 µg/mL and the “IC50” value (H460stock cells) was 4.5 µg/mL. For the same compound, the “IC50” value (H460 MN58R cells) was 2 µg/mL and the “IC50” value (H460 RSM-932AR cells) was 1.5 µg/mL.
In the case of “TRAIL: extracellular domain of human TRAIL (amino acids 95-281)”, the “cytotoxicity, percentage of cell death” value [8] is reported as 12%, the cytotoxicity [9] is reported as 18% and the sensitivity to treatment [10] is reported as “nearly resistant”. The “sensitivity across the cell lines” value [11] was “very similar for all cell lines except for SW620”.
